Measured values from US20230130766A1 (SALK INSTITUTE FOR BIOLOGICAL STUDIES, priority 2020, published 2023).
pIC50: −log10 of the molar value.

molecular target: T1, ULK1 (Homo sapiens, UniProt O75385); test: ULK1 inhibition assay; format: biochemical; settings: * = tested as a mixture of regioisomers
T1 sequence (O75385 1-1050): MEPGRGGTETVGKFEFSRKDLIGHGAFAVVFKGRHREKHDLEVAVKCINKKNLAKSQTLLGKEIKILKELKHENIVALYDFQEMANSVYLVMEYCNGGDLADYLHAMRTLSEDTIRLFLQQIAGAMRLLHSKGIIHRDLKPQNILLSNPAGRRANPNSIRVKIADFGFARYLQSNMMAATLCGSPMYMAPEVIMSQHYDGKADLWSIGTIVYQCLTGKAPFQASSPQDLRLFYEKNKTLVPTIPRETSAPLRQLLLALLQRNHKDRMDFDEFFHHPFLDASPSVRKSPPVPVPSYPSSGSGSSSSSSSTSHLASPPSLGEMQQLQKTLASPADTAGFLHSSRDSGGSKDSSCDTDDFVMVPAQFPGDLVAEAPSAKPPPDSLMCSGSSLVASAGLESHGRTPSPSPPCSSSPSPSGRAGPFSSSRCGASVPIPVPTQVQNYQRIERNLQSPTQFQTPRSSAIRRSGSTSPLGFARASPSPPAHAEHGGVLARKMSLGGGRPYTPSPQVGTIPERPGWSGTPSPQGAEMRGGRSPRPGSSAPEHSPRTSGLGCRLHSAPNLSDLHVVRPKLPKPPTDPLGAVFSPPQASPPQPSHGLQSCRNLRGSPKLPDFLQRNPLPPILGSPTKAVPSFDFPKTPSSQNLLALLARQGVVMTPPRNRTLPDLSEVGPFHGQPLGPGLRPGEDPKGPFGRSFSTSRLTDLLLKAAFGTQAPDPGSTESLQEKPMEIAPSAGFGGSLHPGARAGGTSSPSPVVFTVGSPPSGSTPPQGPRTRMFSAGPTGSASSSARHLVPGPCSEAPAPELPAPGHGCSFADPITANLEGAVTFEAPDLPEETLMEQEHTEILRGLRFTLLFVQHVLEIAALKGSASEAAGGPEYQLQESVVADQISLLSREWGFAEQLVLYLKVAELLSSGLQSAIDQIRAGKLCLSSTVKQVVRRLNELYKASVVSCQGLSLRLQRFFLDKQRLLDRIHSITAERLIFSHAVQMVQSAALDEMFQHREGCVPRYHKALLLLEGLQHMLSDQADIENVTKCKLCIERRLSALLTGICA

pIC50 | SMILES
> 6.70 | O=C1CCc2cc(Nc3ncc(C(F)(F)F)c(Nc4ccc5c(c4)OCO5)n3)ccc2N1 [124*]
< 5.70 | COc1cccc(Nc2nc(Nc3ccc(OC(F)(F)F)c(Cl)c3)ncc2C(F)(F)F)c1 [136*]
5.70 to 6.70 | COc1cccc(Nc2nc(Nc3cc4ccccc4cc3O)ncc2C(F)(F)F)c1 [137*]
> 6.70 | NC(=O)c1cccc(Nc2ncc(C(F)(F)F)c(Nc3ccc4c(c3)OCO4)n2)c1 [138*]
> 6.70 | FC(F)(F)c1cnc(Nc2ccc(-n3cccc3)cc2)nc1Nc1ccc2c(c1)OCO2 [139*]
> 6.70 | FC(F)(F)c1cnc(Nc2ccc3c(c2)CCC3)nc1Nc1ccc2c(c1)OCO2 [140*]
> 6.70 | COc1ccc(Nc2ncc(C(F)(F)F)c(Nc3ccc4c(c3)OCO4)n2)cc1 [144*]
< 5.70 | FC(F)(F)c1cnc(Nc2cccc(Cl)c2Cl)nc1Nc1ccc2c(c1)OCO2 [147*]
< 5.70 | FC(F)(F)c1cnc(Nc2cccc(Oc3ccccc3)c2)nc1Nc1ccc2c(c1)OCO2 [149*]
> 6.70 | O=C1CCc2cc(Nc3ncc(C(F)(F)F)c(Nc4ccccc4)n3)ccc2N1 [157*]
> 6.70 | CNC(=O)c1ccccc1Nc1nc(Nc2ccc(N3CCOCC3)cc2OC)ncc1Cl [Compound 12]
> 6.70 | CNC(=O)c1ccccc1Nc1nc(Nc2cc(OC)c(OC)c(OC)c2)ncc1Cl [Compound 15]
> 6.70 | CNC(=O)c1ccccc1Nc1nc(Nc2cc(OC)ccc2C)ncc1Cl [Compound 16]
> 6.70 | CNC(=O)c1ccccc1Nc1nc(Nc2cc(OC)ccc2C)ncc1Br [Compound 17]
> 6.70 | CNC(=O)c1ccccc1Nc1nc(Nc2ccc3c(c2)CCC(=O)N3)ncc1Cl [Compound 19]
> 6.70 | CNC(=O)c1ccccc1Nc1nc(Nc2ccc3c(c2)CCC(=O)N3)ncc1Br [Compound 20]
> 6.70 | CNC(=O)c1ccccc1Nc1nc(Nc2ccc3c(c2)CC(=O)N3)ncc1Cl [Compound 21]
> 6.70 | COc1cc(Nc2ncc(Br)c(Nc3ccccn3)n2)cc(OC)c1OC [Compound 22]

pIC50 | SMILES
> 6.70 | CNC(=O)c1ccccc1Nc1nc(Nc2ccc3[nH]ccc3c2)ncc1Br [Compound 23]
> 6.70 | COc1ccc(Nc2nc(Nc3cc(OC)c(OC)c(OC)c3)ncc2Cl)cn1 [Compound 24]
> 6.70 | COc1ccc(Nc2nc(Nc3cc(OC)c(OC)c(OC)c3)ncc2Br)cn1 [Compound 25]
< 5.70 | COc1ccc(Nc2nc(Nc3ccc(N4CCOCC4)cc3OC)ncc2Cl)cn1 [Compound 27]
> 6.70 | COc1ccc(Nc2nc(Nc3ccc4[nH]ccc4c3)ncc2Br)cn1 [Compound 30]
> 6.70 | COc1cc(Nc2ncc(C(F)(F)F)c(NCc3cccc(S(C)(=O)=O)c3)n2)cc(OC)c1OC [Compound 31]
< 5.70 | COc1ccc(C)c(Nc2ncc(Cl)c(Nc3ccc(OC)nc3)n2)c1 [Compound 34]
< 5.70 | COc1ccc(C)c(Nc2ncc(Br)c(Nc3ccc(OC)nc3)n2)c1 [Compound 35]
< 5.70 | CNC(=O)c1ccccc1Nc1nc(Nc2cc(OC)c(OC)c(OC)c2)ncc1C(F)(F)F [Compound 36]
> 6.70 | COc1ccc(Nc2nc(Nc3cc(OC)c(OC)c(OC)c3)ncc2C(F)(F)F)cn1 [Compound 37]
> 6.70 | CNC(=O)c1ccccc1Nc1nc(Nc2ccc(N3CCOCC3)cc2OC)ncc1C(F)(F)F [Compound 39]
< 5.70 | COc1ccc(Nc2nc(Nc3ccc(N4CCOCC4)cc3OC)ncc2C(F)(F)F)cn1 [Compound 40]
< 5.70 | COc1ccc(C)c(Nc2ncc(Cl)c(NCc3cccc(S(C)(=O)=O)c3)n2)c1 [Compound 41]
> 6.70 | CNC(=O)c1ccccc1Nc1nc(Nc2cc(OC)ccc2C)ncc1C(F)(F)F [Compound 42]
> 6.70 | O=C1CCc2cc(Nc3ncc(C(F)(F)F)c(NCc4ccccc4)n3)ccc2N1 [Compound 43]
> 6.70 | CNC(=O)c1ccccc1Nc1nc(Nc2cccc(OC)c2)ncc1Cl [Compound 44]
< 5.70 | COc1ccc(C)c(Nc2ncc(Cl)c(Nc3cccc(S(=O)(=O)N(C)C)c3)n2)c1 [Compound 45]
